Results: patent US8802597B2, “Herbicidal pyrimidines” (E I du Pont de Nemours and Company, priority 2003, dated 2014)
Read-outs that look alike come from different tables or passages of the source.

Columns and labels:
Assay type in all cases: in vivo
[1] = test system: barnyardgrass (Echinochloa crus-galli); assay: Test B flooded paddy test; details: Flood, scale 0 to 100; for pest or weed control at 125 g/ha / pest or weed control at 500 g/ha: Echinochloa crus-galli, read-out: Plant response rating, Barnyardgrass
Method in brief: (§1)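 Plants were grown to the 2-leaf stage before treatment, then kept in a greenhouse for 13 to 15 days. Injury was rated visually against untreated controls on a 0 to 100 scale, where 0 is no effect and 100 is complete control.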

[2] = test system: duck salad (Heteranthera limosa); assay: Test B flooded paddy test; details: Flood, scale 0 to 100; for pest or weed control at 125 g/ha / pest or weed control at 500 g/ha: Heteranthera limosa, read-out: Plant response rating, Ducksalad
Method in brief: as §1

rice (Oryza sativa) = assay: Test B flooded paddy test; details: Flood, scale 0 to 100; for plant injury at 125 g/ha / plant injury at 500 g/ha: Oryza sativa, read-out: Plant response rating, Rice
Method in brief: as §1

[3] = test system: umbrella sedge (Cyperus difformis); assay: Test B flooded paddy test; details: Flood, scale 0 to 100; for pest or weed control at 125 g/ha / pest or weed control at 500 g/ha: Cyperus difformis, read-out: Plant response rating, Sedge, Umbrella
Method in brief: as §1

[4] = test system: Surinam grass (Brachiaria decumbens); assay: Test B pre/postemergence; details: Urochloa decumbens; for pest or weed control at 62 g/ha: 62 g ai/ha; for pest or weed control at 250 g/ha: 250 g ai/ha
Method in brief: (§2)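 Visual injury scored 0 (no effect) to 100 (complete control) versus untreated controls after 13 to 15 days in greenhouse. Treatments were pre- or postemergence sprays of surfactant-containing solvent formulations; postemergence plants at 1- to 4-leaf stage, 2 to 18 cm.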

[5] = test system: barnyardgrass (Echinochloa crus-galli); assay: Test B pre/postemergence; details: Echinochloa crus-galli; for pest or weed control at 62 g/ha: 62 g ai/ha; for pest or weed control at 250 g/ha: 250 g ai/ha
Method in brief: as §2

[6] = test system: cocklebur (Xanthium strumarium); assay: Test B pre/postemergence; details: Xanthium strumarium; for pest or weed control at 62 g/ha: 62 g ai/ha; for pest or weed control at 250 g/ha: 250 g ai/ha
Method in brief: as §2

corn (Zea mays) = assay: Test B pre/postemergence; details: Zea mays; for Corn plant response rating (crop injury, 0 = no effect, 100 = complete kill) at 250 g/ha: 250 g ai/ha
Method in brief: as §2

[7] = test system: crabgrass (Digitaria sanguinalis); assay: Test B pre/postemergence; details: Digitaria sanguinalis; for pest or weed control at 62 g/ha: 62 g ai/ha; for pest or weed control at 250 g/ha: 250 g ai/ha
Method in brief: as §2

[8] = test system: giant foxtail (Setaria faberii); assay: Test B pre/postemergence; details: Setaria faberi; for pest or weed control at 62 g/ha: 62 g ai/ha; for pest or weed control at 250 g/ha: 250 g ai/ha
Method in brief: as §2

[9] = test system: lambsquarters (Chenopodium album); assay: Test B pre/postemergence; details: Chenopodium album, post-emergence, Postemergence
Method in brief: as §2

[10] = test system: morningglory (Ipomoea coccinea); assay: Test B pre/postemergence; details: Ipomoea; for pest or weed control at 62 g/ha: 62 g ai/ha; for pest or weed control at 250 g/ha: 250 g ai/ha
Method in brief: as §2

[11] = test system: pigweed (Amaranthus retroflexus); assay: Test B pre/postemergence; details: Amaranthus retroflexus; for pest or weed control at 62 g/ha: 62 g ai/ha; for pest or weed control at 250 g/ha: 250 g ai/ha
Method in brief: as §2

[12] = test system: velvetleaf (Abutilon theophrasti); assay: Test B pre/postemergence; details: Abutilon theophrasti; for pest or weed control at 62 g/ha: 62 g ai/ha; for pest or weed control at 250 g/ha: 250 g ai/ha
Method in brief: as §2

[13] = test system: wheat (Triticum aestivum); assay: Test B pre/postemergence; details: Triticum aestivum; for plant injury at 62 g/ha: 62 g ai/ha; for plant injury at 250 g/ha: 250 g ai/ha
Method in brief: as §2

[14] = test system: blackgrass (Alopecurus myosuroides); assay: Test B postemergence; details: Alopecurus myosuroides, post-emergence
Method in brief: as §2

wild oat (Avena fatua) = assay: Test B postemergence; details: Avena fatua, post-emergence
Method in brief: as §2

[15] = pre-emergence, Preemergence, scale 0 to 100 (0 no effect, 100 complete control), read-out: Plant response rating, Barnyardgrass
[16] = pre-emergence, Preemergence, scale 0 to 100 (0 no effect, 100 complete control), read-out: Plant response rating, Wheat

## COC(=O)c1nc(-c2ccc(Cl)cc2)nc(N)c1Cl [Compound 58, methyl 6-amino-5-chloro-2-(4-chlorophenyl)-4-pyrimidinecarboxylate]
[1]; 125 g ai/ha
  pest or weed control at 125 g/ha: 0%
[1]; 500 g ai/ha
  pest or weed control at 500 g/ha: 0%
[2]; 125 g ai/ha
  pest or weed control at 125 g/ha: 100%
[2]; 500 g ai/ha
  pest or weed control at 500 g/ha: 100%
Rice (Oryza sativa); 125 g ai/ha
  plant injury at 125 g/ha: 0%
Rice (Oryza sativa); 500 g ai/ha
  plant injury at 500 g/ha: 0%
[3]; 125 g ai/ha
  pest or weed control at 125 g/ha: 90%
[3]; 500 g ai/ha
  pest or weed control at 500 g/ha: 100%

## COC(=O)c1nc(-c2ccc(Br)cc2)nc(N)c1Cl [Compound 96, methyl 6-amino-2-(4-bromophenyl)-5-chloro-4-pyrimidinecarboxylate]
[1]; 125 g ai/ha
  pest or weed control at 125 g/ha: 0%
[1]; 500 g ai/ha
  pest or weed control at 500 g/ha: 10%
[2]; 125 g ai/ha
  pest or weed control at 125 g/ha: 100%
[2]; 500 g ai/ha
  pest or weed control at 500 g/ha: 100%
Rice (Oryza sativa); 125 g ai/ha
  plant injury at 125 g/ha: 0%
Rice (Oryza sativa); 500 g ai/ha
  plant injury at 500 g/ha: 0%
[3]; 125 g ai/ha
  pest or weed control at 125 g/ha: 90%
[3]; 500 g ai/ha
  pest or weed control at 500 g/ha: 90%

## Cc1ccc(-c2nc(N)c(Cl)c(C(=O)O)n2)cc1 [Compound 91]
[1]; 125 g ai/ha
  Plant response rating, Barnyardgrass: 0
[1]; 500 g ai/ha
  Plant response rating, Barnyardgrass: 20
[2]; 125 g ai/ha
  Plant response rating, Ducksalad: 100
[2]; 500 g ai/ha
  Plant response rating, Ducksalad: 100
Rice (Oryza sativa); 125 g ai/ha
  Plant response rating, Rice: 0
Rice (Oryza sativa); 500 g ai/ha
  Plant response rating, Rice: 0
[3]; 125 g ai/ha
  Plant response rating, Sedge, Umbrella: 80
[3]; 500 g ai/ha
  Plant response rating, Sedge, Umbrella: 90

## CCOC(=O)c1nc(C2CC2)nc(NC(C)=O)c1Br [Compound 53]
[4]; post-emergence, Postemergence, scale 0 to 100 (0 no effect, 100 complete control), read-out: Surinam Grass plant response rating
  pest or weed control at 62 g/ha: 10%
[4]; post-emergence, Postemergence, scale 0 to 100, read-out: Plant response rating, Surinam Grass
  pest or weed control at 250 g/ha: 50%
[4]; pre-emergence, Preemergence, scale 0 to 100 (0 no effect, 100 complete control), read-out: Plant response rating, Surinam Grass
  pest or weed control at 250 g/ha: 30%
[4]; pre-emergence, Preemergence, scale 0 to 100, 0 no effect, 100 complete control, read-out: Plant response rating, Surinam Grass
  pest or weed control at 62 g/ha: 0%
[5]; post-emergence, Postemergence, scale 0 to 100 (0 no effect, 100 complete control), read-out: Barnyardgrass plant response rating
  pest or weed control at 62 g/ha: 80%
[5]; post-emergence, Postemergence, scale 0 to 100, read-out: Plant response rating, Barnyardgrass
  pest or weed control at 250 g/ha: 90%
[5]; [15]
  pest or weed control at 62 g/ha: 0%
  pest or weed control at 250 g/ha: 70%
[6]; post-emergence, Postemergence, scale 0 to 100 (0 no effect, 100 complete control), read-out: Cocklebur plant response rating
  pest or weed control at 62 g/ha: 50%
[6]; post-emergence, Postemergence, scale 0 to 100, read-out: Plant response rating, Cocklebur
  pest or weed control at 250 g/ha: 90%
[6]; pre-emergence, Preemergence, scale 0 to 100, 0 no effect, 100 complete control, read-out: Plant response rating, Cocklebur
  pest or weed control at 62 g/ha: 60%
[6]; pre-emergence, Preemergence, scale 0 to 100 (0 no effect, 100 complete control), read-out: Plant response rating, Cocklebur
  pest or weed control at 250 g/ha: 100%
Corn (Zea mays); post-emergence, Postemergence, 62 g ai/ha, scale 0 to 100 (0 no effect, 100 complete control), read-out: Corn plant response rating
  plant injury at 62 g/ha: 0%
Corn (Zea mays); post-emergence, Postemergence, scale 0 to 100
  Corn plant response rating (crop injury, 0 = no effect, 100 = complete kill) at 250 g/ha: 70%
Corn (Zea mays); pre-emergence, Preemergence, 62 g ai/ha, scale 0 to 100, 0 no effect, 100 complete control
  Corn plant response rating (crop injury, 0 = no effect, 100 = complete kill) at 62 g/ha: 0%
Corn (Zea mays); pre-emergence, Preemergence, scale 0 to 100 (0 no effect, 100 complete control)
  Corn plant response rating (crop injury, 0 = no effect, 100 = complete kill) at 250 g/ha: 0%
[7]; post-emergence, Postemergence, scale 0 to 100 (0 no effect, 100 complete control), read-out: Crabgrass plant response rating
  pest or weed control at 62 g/ha: 0%
[7]; post-emergence, Postemergence, scale 0 to 100, read-out: Plant response rating, Crabgrass
  pest or weed control at 250 g/ha: 30%
[7]; pre-emergence, Preemergence, scale 0 to 100, 0 no effect, 100 complete control, read-out: Plant response rating, Crabgrass
  pest or weed control at 62 g/ha: 0%
[7]; pre-emergence, Preemergence, scale 0 to 100 (0 no effect, 100 complete control), read-out: Plant response rating, Crabgrass
  pest or weed control at 250 g/ha: 50%
[8]; post-emergence, Postemergence, scale 0 to 100 (0 no effect, 100 complete control), read-out: Foxtail, Giant plant response rating
  pest or weed control at 62 g/ha: 30%
[8]; post-emergence, Postemergence, scale 0 to 100, read-out: Plant response rating, Foxtail, Giant
  pest or weed control at 250 g/ha: 70%
[8]; pre-emergence, Preemergence, scale 0 to 100 (0 no effect, 100 complete control), read-out: Plant response rating, Foxtail, Giant
  pest or weed control at 250 g/ha: 50%
[8]; pre-emergence, Preemergence, scale 0 to 100, 0 no effect, 100 complete control, read-out: Plant response rating, Foxtail, Giant
  pest or weed control at 62 g/ha: 0%
[9]; 62 g ai/ha, scale 0 to 100 (0 no effect, 100 complete control), read-out: Lambsquarters plant response rating
  pest or weed control at 62 g/ha: 90%
[9]; 250 g ai/ha, scale 0 to 100, read-out: Plant response rating, Lambsquarters
  pest or weed control at 250 g/ha: 100%
[10]; post-emergence, Postemergence, scale 0 to 100 (0 no effect, 100 complete control), read-out: Morningglory plant response rating
  pest or weed control at 62 g/ha: 90%
[10]; post-emergence, Postemergence, scale 0 to 100, read-out: Plant response rating, Morningglory
  pest or weed control at 250 g/ha: 90%
[10]; pre-emergence, Preemergence, scale 0 to 100, 0 no effect, 100 complete control, read-out: Plant response rating, Morningglory
  pest or weed control at 62 g/ha: 90%
[10]; pre-emergence, Preemergence, scale 0 to 100 (0 no effect, 100 complete control), read-out: Plant response rating, Morningglory
  pest or weed control at 250 g/ha: 100%
[11]; post-emergence, Postemergence, scale 0 to 100 (0 no effect, 100 complete control), read-out: Pigweed plant response rating
  pest or weed control at 62 g/ha: 80%
[11]; post-emergence, Postemergence, scale 0 to 100, read-out: Plant response rating, Pigweed
  pest or weed control at 250 g/ha: 100%
[11]; pre-emergence, Preemergence, scale 0 to 100, 0 no effect, 100 complete control, read-out: Plant response rating, Pigweed
  pest or weed control at 62 g/ha: 60%
[11]; pre-emergence, Preemergence, scale 0 to 100 (0 no effect, 100 complete control), read-out: Plant response rating, Pigweed
  pest or weed control at 250 g/ha: 100%
[12]; post-emergence, Postemergence, scale 0 to 100 (0 no effect, 100 complete control), read-out: Velvetleaf plant response rating
  pest or weed control at 62 g/ha: 40%
[12]; post-emergence, Postemergence, scale 0 to 100, read-out: Plant response rating, Velvetleaf
  pest or weed control at 250 g/ha: 80%
[12]; pre-emergence, Preemergence, scale 0 to 100, 0 no effect, 100 complete control, read-out: Plant response rating, Velvetleaf
  pest or weed control at 62 g/ha: 20%
[12]; pre-emergence, Preemergence, scale 0 to 100 (0 no effect, 100 complete control), read-out: Plant response rating, Velvetleaf
  pest or weed control at 250 g/ha: 90%
[13]; post-emergence, Postemergence, scale 0 to 100 (0 no effect, 100 complete control), read-out: Wheat plant response rating
  plant injury at 62 g/ha: 30%
[13]; post-emergence, Postemergence, scale 0 to 100, read-out: Plant response rating, Wheat
  plant injury at 250 g/ha: 60%
[13]; [16]
  plant injury at 62 g/ha: 0%
  plant injury at 250 g/ha: 40%
[14]; 62 g ai/ha, scale 0 to 100 (0 no effect, 100 complete control), read-out: Blackgrass plant response rating
  pest or weed control at 62 g/ha: 20%
[14]; 250 g ai/ha, scale 0 to 100, read-out: Plant response rating, Blackgrass
  pest or weed control at 250 g/ha: 60%
Wild oat (Avena fatua); 62 g ai/ha, scale 0 to 100 (0 no effect, 100 complete control), read-out: Oat, Wild plant response rating
  pest or weed control at 62 g/ha: 30%
Wild oat (Avena fatua); 250 g ai/ha, scale 0 to 100, read-out: Plant response rating, Oat, Wild
  pest or weed control at 250 g/ha: 60%
